In this test the target is C5aR (Homo sapiens (Human), UniProt P21730). Description: Chemotaxis assay using U937 cells (C5aR mediated migration). The test is classed as cell-based. The conditions noted are these: read-out: Mig IC50. The method in brief:
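U937 monocytic cells, pretreated overnight with 0.5 mM cyclic AMP, placed at 100,000 cells in the upper well above 5 μm polycarbonate filters. Lower well held 0.03 nM C5a plus compound in HBSS/1% FBS; after 1.5 h at 37° C migrated cells counted directly or by CyQuant, giving IC50.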

Each structure is given as a SMILES string.

C5aR, sequence (P21730 whole entry): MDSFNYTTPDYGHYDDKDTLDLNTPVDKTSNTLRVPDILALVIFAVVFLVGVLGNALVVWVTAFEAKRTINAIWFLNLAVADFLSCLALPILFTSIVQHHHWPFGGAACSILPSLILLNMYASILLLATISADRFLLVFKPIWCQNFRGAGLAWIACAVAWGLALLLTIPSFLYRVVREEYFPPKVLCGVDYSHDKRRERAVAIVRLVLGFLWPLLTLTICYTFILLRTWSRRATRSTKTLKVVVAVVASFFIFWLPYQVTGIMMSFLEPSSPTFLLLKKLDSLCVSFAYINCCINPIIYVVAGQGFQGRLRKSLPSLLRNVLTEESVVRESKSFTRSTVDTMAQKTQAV

The term IC50 denotes the concentration at which inhibition is half-maximal. As to `Cc1cccc(OCC(C)C)c1-n1nc2c(c1-c1cc(F)c(NC(N)=O)cc1F)CN(c1nccn3ccnc13)CC2` [Example 1.142], the IC50 was 5 to 50 nM.

`Cc1cccc(C)c1-n1nc2c(c1-c1cc(F)c(NC(N)=O)cc1F)CN(c1ccc(C3CC3)cc1Cl)CC2` [Example 1.093]: the IC50 is at most 5 nM.

Consider `CCc1cccc(CC)c1-n1nc2c(c1-c1ccc(NC(N)=O)cc1)CN(C(CC)c1ccccc1C(F)(F)F)CC2` (centres unmarked) [Example 1.286], for which the IC50 was 5 to 50 nM.

In the case of `CCc1cccc(CC)c1-n1nc2c(c1-c1cc(F)c(NC(N)=O)cc1F)CN(Cc1ccccc1)CC2` [Example 1.051], the IC50 is at most 5 nM.

As for `CCc1cccc(CC)c1-n1nc2c(c1-c1cc(F)c(NC(N)=O)cc1F)CN(Cc1c(F)cc(C(F)(F)F)cc1C(F)(F)F)CC2` [Example 1.062], the IC50 was at most 5 nM.

Consider `CC(C)COc1cccc(F)c1-n1nc2c(c1-c1cc(F)c(NC(N)=O)cc1F)CN(c1ncc(Cl)cc1Cl)CC2` [Example 1.188], for which the half-inhibitory concentration (IC50) is at most 5 nM.

For the compound `Cc1cccc(OCC(C)C)c1-n1nc2c(c1-c1ccc(NC(N)=O)cc1)CN(c1ccccc1C(C)(C)C)CC2` [Example 1.454], the IC50 is at most 5 nM.

With `Cc1cccc(OCC(C)C)c1-n1nc2c(c1-c1ccc(NC(N)=O)c(F)c1)CN(c1ncc(Cl)cc1Cl)CC2` [Example 1.252], the IC50 is at most 5 nM.

With `Cc1cccc(OCC(C)C)c1-n1nc2c(c1-c1cc(F)c(NC(N)=O)cc1F)CN(c1ccnc(C(F)(F)F)n1)CC2` [Example 1.137], the IC50 was at most 5 nM.

Consider `Cc1cccc(OCC(C)C)c1-n1nc2c(c1-c1cc(F)c(NC(N)=O)cc1F)CN(c1ncc(C(C)C)cn1)CC2` [Example 1.166], for which the IC50 is at most 5 nM.

Take `Cc1cccc(OCC(C)C)c1-n1nc2c(c1-c1ccc(NC(N)=O)cc1)CN(CC1(C(F)(F)F)CCCC1)CC2` [Example 1.366]: the 50% inhibitory concentration (IC50) was in the range of 5 to 50 nM.

Take `Cc1cccc(OCC(C)C)c1-n1nc2c(c1-c1ccc(NC(N)=O)cc1)CN(C(=O)c1cccc(C(C)(C)C)c1)CC2` [Example 1.433]: the IC50 lay in the range of 50 to 500 nM.

`CCCC(C)N1CCc2nn(-c3c(C)cccc3OCC(C)C)c(-c3ccc(NC(N)=O)c(F)c3)c2C1` (centres unmarked) [Example 1.247]: the IC50 is at most 5 nM.

Take `Cc1cccc(OCC(C)C)c1-n1nc2c(c1-c1ccc(NC(N)=O)cc1)CN(Cc1cc(C(F)(F)F)ccc1C(F)(F)F)CC2` [Example 1.335]: the IC50 is at most 5 nM.

Regarding `Cc1cccc(OCC(C)C)c1-n1nc2c(c1-c1ccc(NC(N)=O)cc1)CN(CC(C(F)(F)F)C(F)(F)F)CC2` [Example 1.346], the concentration for half-maximal inhibition (IC50) lay in the range of 5 to 50 nM.

Consider `Cc1cccc(OCC(C)C)c1-n1nc2c(c1-c1ccc(NC(N)=O)cc1)CN(Cc1ccc(C(F)(F)F)cc1)CC2` [Example 1.345], for which the IC50 is at most 5 nM.

Regarding `CCc1cccc(CC)c1-n1nc2c(c1-c1cc(F)c(NC(N)=O)cc1F)CN(C(C)c1cccc(F)c1)CC2` (centres unmarked) [Example 1.181], the IC50 was at most 5 nM.

With `Cc1cccc(C)c1-n1nc2c(c1-c1cc(F)c(NC(N)=O)cc1F)CN(c1ncc(C(F)(F)F)cc1Cl)CC2` [Example 1.091], the IC50 is at most 5 nM.

As to `Cc1cccc(OCC(C)C)c1-n1nc2c(c1-c1ccc(NC(N)=O)c(F)c1)CN(c1nccn3ccnc13)CC2` [Example 1.245], the IC50 fell in the range of 5 to 50 nM.

For the compound `Cc1cccc(OCC(C)C)c1-n1nc2c(c1-c1ccc(NC(N)=O)c(F)c1)CN(S(=O)(=O)c1ccccc1)CC2` [Example 1.237], the IC50 lay in the range of 5 to 50 nM.

Turning to `Cc1cnc(N2CCc3nn(-c4c(C)cccc4OCC(C)C)c(-c4ccc(NC(N)=O)c(F)c4)c3C2)c(C(F)(F)F)c1` [Example 1.240], the IC50 is at most 5 nM.

`Cc1cccc(OCC(C)C)c1-n1nc2c(c1-c1ccc(NC(N)=O)cc1)CN(C(=O)c1ccccc1C(C)C)CC2` [Example 1.434]: the IC50 was in the range of 50 to 500 nM.

Regarding `Cc1cccc(OCC(C)C)c1-n1nc2c(c1-c1ccc(C(N)=O)cc1)CN(C(=O)OC(C)(C)C)CC2` [Example 1.411], the IC50 is over 500 nM.

With `Cc1ccc(C(F)(F)F)c(CN2CCc3nn(-c4c(C)cccc4OCC(C)C)c(-c4ccc(NC(N)=O)cc4)c3C2)c1` [Example 1.300], the IC50 is at most 5 nM.

In the case of `COc1cccc(C)c1-n1nc2c(c1-c1ccc(NC(N)=O)cc1)CN(c1ccccc1C(C)C)CC2` [Example 1.482], the IC50 lay in the range of 5 to 50 nM.

Regarding `Cc1ccc(C(C)(C)C)cc1N1CCc2nn(-c3c(C)cccc3CC(C)C)c(-c3ccc(NC(N)=O)cc3)c2C1` [Example 1.401], the IC50 is at most 5 nM.

For the compound `Cc1cccc(OCC(C)C)c1-n1nc2c(c1-c1ccc(NC(N)=O)c(F)c1)CN(c1ncc(F)cc1Cl)CC2` [Example 1.228], the IC50 is at most 5 nM.

Turning to `Cc1ccnc(C)c1-n1nc2c(c1-c1cc(F)c(NC(N)=O)cc1F)CN(C(C)(C)c1ccccc1)CC2` [Example 1.133], the 50% inhibitory concentration (IC50) fell in the range of 50 to 500 nM.

Take `Cc1cccc(OCC(C)C)c1-n1nc2c(c1-c1ccc(NC(N)=O)cc1)CN(C(=O)c1ccccc1)CC2` [Example 1.431]: the IC50 lay within 50 to 500 nM.

As for `Cc1cccc(CCC(C)C)c1-n1nc2c(c1-c1ccc(NC(N)=O)cc1)CN(Cc1ccc(C(F)(F)F)cc1C(F)(F)F)CC2` [Example 1.337], the IC50 was 5 to 50 nM.

Consider `CCc1cccc(CC)c1-n1nc2c(c1-c1cc(F)c(NC(N)=O)cc1F)CN(Cc1cc(Cl)ccc1C(F)(F)F)C(C)(C)C2` [Example 1.031], for which the IC50 was at most 5 nM.

Regarding `CCc1cccc(CC)c1-n1nc2c(c1-c1cc(F)c(NC(N)=O)cc1F)CN(C(=O)C(C)C)C(C)(C)C2` [Example 1.032], the IC50 is at most 5 nM.

Turning to `Cc1cccc(OCC(C)C)c1-n1nc2c(c1-c1ccc(NC(N)=O)c(F)c1Cl)CN(c1ncc(C(F)(F)F)cc1F)CC2` [Example 1.222], the IC50 was at most 5 nM.

For `CCc1cccc(CC)c1-n1nc2c(c1-c1cc(F)c(NC(=O)CO)cc1F)CN(Cc1ccc(C(F)(F)F)cc1C(F)(F)F)CC2` [Example 1.002], the IC50 fell in the range of 50 to 500 nM.

Regarding `Cc1cccc(OCC(C)C)c1-n1nc2c(c1-c1ccc(NC(N)=O)cc1)CN(S(=O)(=O)c1ccccc1C(F)(F)F)CC2` [Example 1.298], the IC50 fell in the range of 50 to 500 nM.

On to `Cc1cc(NC(N)=O)c(F)cc1-c1c2c(nn1-c1c(C)cccc1C)CCN(c1ncc(Cl)cc1Cl)C2` [Example 1.128], for which the IC50 was at most 5 nM.

As to `CCc1cccc(CC)c1-n1nc2c(c1-c1cc(F)c(NC(N)=O)cc1F)CN(C(C(N)=O)c1ccccc1)CC2` (centres unmarked) [Example 1.135], the IC50 is over 500 nM.

For `Cc1cccc(OCC(C)C)c1-n1nc2c(c1-c1ccc(NC(N)=O)cc1)CN(c1ccc(Cl)c(C(F)(F)F)c1)CC2` [Example 1.379], the IC50 was 5 to 50 nM.

Turning to `Cc1cccc(OCC(C)C)c1-n1nc2c(c1-c1ccc(NC(N)=O)cc1)CN(CC(C)(C)C(F)(F)F)CC2` [Example 1.373], the IC50 fell in the range of 5 to 50 nM.

As to `Cc1cccc(C)c1-n1nc2c(c1-c1cc(F)c(NC(N)=O)cc1F)CN(c1ncc(Cl)cc1C(N)=O)CC2` [Example 1.101], the IC50 was over 500 nM.

Take `Cc1cccc(OCC(C)C)c1-n1nc2c(c1-c1ccc(NC(N)=O)cc1)CN(c1cc(C(C)(C)O)ccc1F)CC2` [Example 1.363]: the concentration for half-maximal inhibition (IC50) lay in the range of 50 to 500 nM.

Turning to `Cc1cccc(OCC(C)C)c1-n1nc2c(c1-c1ccc(NC(N)=O)cc1)CN(c1cccc(C(F)(F)F)c1)CC2` [Example 1.412], the IC50 is at most 5 nM.

Turning to `Cc1cc(C(F)(F)F)ccc1N1CCc2nn(-c3c(C)cccc3OCC(C)C)c(-c3ccc(NC(N)=O)cc3)c2C1` [Example 1.377], the IC50 was 5 to 50 nM.

Regarding `Cc1cccc(OCC(C)C)c1-n1nc2c(c1-c1ccc(NC(N)=O)cc1)CN(C(=O)CC(C)(C)C)CC2` [Example 1.435], the IC50 fell in the range of 50 to 500 nM.

Turning to `CCc1cccc(CC)c1-n1nc2c(c1-c1cc(F)c(NC(N)=O)cc1F)CN(Cc1cc(C(F)(F)F)ccc1C(F)(F)F)CC2` [Example 1.055], the IC50 is at most 5 nM.

For `Cc1cccc(OCC(C)C)c1-n1nc2c(c1-c1cc(F)c(NC(N)=O)cc1F)CN(C(C)(C)C#N)CC2` [Example 1.209], the IC50 lay within 50 to 500 nM.

As for `Cc1ccc(C(C)(C)C)cc1N1CCc2nn(-c3ccccc3C(C)C)c(-c3ccc(N(C)C(N)=O)cc3)c2C1` [Example 1.402], the IC50 was over 500 nM.

Regarding `Cc1cccc(OCC(C)C)c1-n1nc2c(c1-c1cc(F)c(NC(N)=O)cc1F)CN(c1ncc(C(C)C)cc1F)CC2` [Example 1.202], the IC50 is at most 5 nM.

Take `CCc1cccc(CC)c1-n1nc2c(c1-c1cc(F)c(NC(N)=O)cc1F)CN(C(C)(C)C)CC2` [Example 1.204]: the IC50 lay in the range of 5 to 50 nM.

With `CCc1cccc(CC)c1-n1nc2c(c1-c1cc(F)c(NC(N)=O)cc1F)CN(Cc1ccc(OC)cc1C(F)(F)F)CC2` [Example 1.053], the IC50 is at most 5 nM.

In the case of `CCc1cccc(CC)c1-n1nc2c(c1-c1cc(F)c(NC(N)=O)cc1F)CN(Cc1ccc(C(F)(F)F)cc1Cl)C(C)(C)C2` [Example 1.035], the IC50 was at most 5 nM.

`Cc1cccc(OCC(C)C)c1-n1nc2c(c1-c1ccc(NC(N)=O)cc1)CN(C1CCCC1)CC2` [Example 1.410]: the IC50 was 50 to 500 nM.

Regarding `Cc1ccc(CN2CCc3nn(-c4c(C)cccc4OCC(C)C)c(-c4ccc(NC(N)=O)cc4)c3C2)c(Cl)c1` [Example 1.312], the IC50 was at most 5 nM.

`Cc1ccc(C(C)(C)C)cc1N1CCc2nn(-c3c(C)cccc3OCC(C)C)c(-c3ccc(C(N)=O)cc3)c2C1` [Example 1.445]: the IC50 was 5 to 50 nM.

As for `COc1cc(CN2CCc3nn(-c4c(C)cccc4OCC(C)C)c(-c4ccc(NC(N)=O)cc4)c3C2)c(F)cc1Cl` [Example 1.305], the 50% inhibitory concentration (IC50) lay within 5 to 50 nM.

`CCc1cccc(CC)c1-n1nc2c(c1-c1ccc(NC(N)=O)c(F)c1)CN(C(C)(C)CC)CC2` [Example 1.221]: the IC50 is 50 to 500 nM.

With `Cc1cccc(OCC(C)C)c1-n1nc2c(c1-c1cc(F)c(NC(N)=O)cc1F)CN(c1ncc(Cl)cn1)CC2` [Example 1.175], the half-inhibitory concentration (IC50) was at most 5 nM.

On to `Cc1cccc(OCC(C)C)c1-n1nc2c(c1-c1ccc(NC(N)=O)cc1)CN(c1ccc(C(F)(F)F)cc1Cl)CC2` [Example 1.375], for which the IC50 fell in the range of 5 to 50 nM.

Turning to `Cc1cccc(C)c1-n1nc2c(c1-c1cc(F)c(NC(N)=O)cc1F)CN(c1ncc(C(C)(C)O)cc1Cl)CC2` [Example 1.104], the IC50 was in the range of 50 to 500 nM.

For the origin of these results see patent publication US11478460B2, “Diaryl substituted 6,5-fused ring compounds as C5aR inhibitors” (CHEMOCENTRYX, INC., priority 2017, dated 2022).
